# Assay results reported in article PMC7851014 (Investigational New Drugs, 2020).
# Like-named read-outs stand apart in the source and are kept apart here.
# How the values were obtained:
# [1] = Ibrutinib and SMT-conjugate pharmacokinetics in human subjects (plasma of patients A and B); settings: for Tmax / half-life / concentration at 1.4 h / concentration at 0.5 h / concentration at 0.8 h / concentration at 22.7 h / concentration at 22.2 h / concentration at 22.6 h / concentration at 2.5 h / concentration at 3.8 h / concentration at 1.5 h / concentration at 23.3 h / concentration at 2.8 h / concentration at 4.1 h / concentration at 4.4 h / concentration at 2.4 h / concentration at 3.9 h: human; for concentration at 2.5 h: sample ID 13, T 2.5 h; for concentration at 2.5 h / concentration at 3.8 h / concentration at 2.8 h / concentration at 4.1 h / concentration at 4.4 h / concentration at 2.4 h / concentration at 3.9 h: group max; for concentration at 2.8 h: sample ID 4, T 2.8 h; for concentration at 2.4 h: sample ID 12, T 2.4 h; for concentration at 3.9 h: sample ID 17, T 3.9 h
# Description: (§1) For analysis, 200 μL acetonitrile containing the internal standards was added to 100 μL sample. After mixing and centrifuging, 200 μL supernatant was transferred, and thereafter the solvent was partially evaporated. Before the samples were analyzed by ultra-high-performance liquid chromatography with mass spectrometer detection [21], 100 μL of mobile phase (water:acetonitrile:formic acid, 90:10:0.1 (v:v:v)) was added.
# When no time was available at all, the sample was omitted. […] Pharmacokinetic (PK) data was analyzed using the PKNCA package (version 0.8.1) [22] for the statistical software R (version 3.4.2) [23] and RStudio (version 1.1.383) [24].
# [2] = Human ibrutinib metabolism during CYP3A4 inhibition (patient C, plasma, concomitant voriconazole); settings: for half-life / AUC(0-t): human, plasma, oral; for AUC(0-t): 140 mg; for Exposure relative to Sum of quantified compounds / Exposure relative to ibrutinib: patient C, AUC0-24h,ss, concomitant voriconazole
# Description: as §1
# Time-concentration data of three patients were analyzed. […] When no time was available at all, the sample was omitted. […] Pharmacokinetic (PK) data was analyzed using the PKNCA package (version 0.8.1) [22] for the statistical software R (version 3.4.2) [23] and RStudio (version 1.1.383) [24].
# [3] = Half-life of IGSH in human plasma; type: in vitro ADME; settings: 37 °C, in vitro
# ɣ-GT from equine kidney = assay: ɣ-glutamyl transferase assay (conversion of IGSH to ICGS); type: biochemical; settings: approximate kinetic parameters
# Description: IGSH was incubated with 50 mU/L ɣ-GT in a concentration range of 10–10,000 nM in phosphate buffer (100 mM, pH 7.4) at 37 °C. Michaelis-Menten kinetics were calculated by Eadie-Hofstee transformation.
# [4] = Metabolism of IGSH in culture medium; type: in vitro ADME
# Description: During ibrutinib incubations, IGSH was formed intracellularly and transported extracellularly where it was metabolized to ICGS and further to ICYS. IGSH and ICYS were mainly found intracellularly. […] Medium composition influences the metabolism of IGSH. IGSH was metabolized 32% faster in medium with 10% calf serum, when compared to serum-free samples. Medium that was pre-incubated with ciPTEC for 48 h (conditioned medium) was included in the experiments to investigate the possible role of secreted enzymes in the medium. The metabolism of IGSH to ICGS appeared to be 36% faster in conditioned medium.
# ciPTEC = settings: for detection as secondary bioactivation-metabolite of ICYS: ciPTEC
# Description: Medium and cell lysate samples were taken at 1, 2, 3 and 4 h. Each time point was measured in duplicate. Preincubation (t0) analyte concentrations in medium were also analyzed.
# dehydropeptidase I = settings: cited from earlier work
# GST [5] = tested on: GST; set-up: method as in PMID 8706007; settings: cited from earlier work
# GST [6] = assay: GST activity in ciPTEC lysate; settings: 100 μM, pre-incubating lysate for 2.5 h
# [7] = 420 mg, patient A, sample ID 2, T 1.4 h, 1xdd 420mg, group abs
# [8] = 420 mg, patient A, sample ID 5, T 0.5 h, 1xdd 420mg, group abs
# [9] = 420 mg, patient A, sample ID 6, T 0.8 h, 1xdd 420mg, group abs
# [10] = 420 mg, patient A, sample ID 8, T 22.7 h, 1xdd 420mg, group trough
# [11] = 420 mg, patient A, sample ID 10, T 22.2 h, 1xdd 420mg, group trough
# [12] = 420 mg, patient A, sample ID 11, T 22.6 h, 1xdd 420mg, group trough
# [13] = 420 mg, patient A, sample ID 14, T 3.8 h, 1xdd 420mg
# [14] = 420 mg, patient A, sample ID 16, T 1.5 h, 1xdd 420mg, group abs
# [15] = 420 mg, patient A, sample ID 19, T 23.3 h, 1xdd 420mg, group trough
# [16] = 420 mg, patient A, sample ID 21, T 0.8 h, 1xdd 420mg, group abs
# [17] = 560 mg, patient A, sample ID 3, T 0.8 h, 1xdd 560mg, group abs
# [18] = 560 mg, patient B, sample ID 7, T 4.1 h, 1xdd 560mg
# [19] = 560 mg, patient B, sample ID 9, T 4.4 h, 1xdd 560mg
# [20] = 560 mg, patient B, sample ID 20, T 3.8 h, 1xdd 560mg
# [21] = 560 mg, patient B, sample ID 23, T 4.1 h, 1xdd 560mg
# [22] = 560 mg, patient B, sample ID 24, T 4.4 h, 1xdd 560mg
# [23] = patient A, sample ID 15, T NA, 1xdd 420mg, omitted (no group)
# [24] = patient A, sample ID 22, T NA, 1xdd 420mg, omitted (no group)
Tmax [1],half-life [1],"concentration at 1.4 h [1, 7]","concentration at 0.5 h [1, 8]","concentration at 0.8 h [1, 9]","concentration at 22.7 h [1, 10]","concentration at 22.2 h [1, 11]","concentration at 2.5 h ([1]; 420 mg, patient A, 1xdd 420mg)","concentration at 3.8 h [1, 13]","concentration at 0.8 h [1, 17]","concentration at 2.8 h ([1]; 560 mg, patient B, 1xdd 560mg)","concentration at 4.1 h [1, 18]","concentration at 4.4 h [1, 19]","concentration at 2.4 h ([1]; 560 mg, patient B, 1xdd 560mg)","concentration at 3.9 h ([1]; 560 mg, patient B, 1xdd 560mg)","concentration at 3.8 h [1, 20]","concentration at 4.1 h [1, 21]","concentration at 4.4 h [1, 22]","Concentration [1, 23]","Concentration [1, 24]",Compound,further results
2.6 h,3 h,6.7 nM,5.4 nM,7.3 nM,5.6 nM,3.7 nM,412 nM,72.5 nM,9.7 nM,160 nM,191 nM,88.1 nM,73.2 nM,226 nM,78 nM,239 nM,160 nM,5.1 nM,< LLOQ,Nc1ncnc2c1c(-c1ccc(Oc3ccccc3)cc1)nn2[C@@H]1CCCN(C(=O)CCSC[C@H](N)C(=O)NCC(=O)O)C1 [ICGS],"concentration at 22.6 h [1, 12]: 3 nM; concentration at 1.5 h [1, 14]: 2.2 nM; concentration at 23.3 h [1, 15]: 0.6 nM; concentration at 0.8 h [1, 16]: 11.9 nM; half-life [2]: 40.1 h; AUC(0-t) [2]: 0.0949 µM·h; Exposure relative to Sum of quantified compounds [2]: 14%; Exposure relative to ibrutinib [2]: 29%"
4.4 h,4.2 h,5 nM,5.1 nM,5.6 nM,6.4 nM,5 nM,186 nM,32.1 nM,3.9 nM,92.8 nM,170 nM,89.2 nM,210 nM,143 nM,78.7 nM,194 nM,210 nM,12.1 nM,< LLOQ,Nc1ncnc2c1c(-c1ccc(Oc3ccccc3)cc1)nn2[C@@H]1CCCN(C(=O)CCSC[C@H](N)C(=O)O)C1 [ICYS],"concentration at 22.6 h [1, 12]: 4.7 nM; concentration at 1.5 h [1, 14]: 2.3 nM; concentration at 23.3 h [1, 15]: 2.6 nM; concentration at 0.8 h [1, 16]: 12 nM; half-life [2]: 78.3 h; AUC(0-t) [2]: 0.0877 µM·h; Exposure relative to Sum of quantified compounds [2]: 13%; Exposure relative to ibrutinib [2]: 27%"
2.8 h,–,–,–,–,–,–,1.5 nM,0.5 nM,0.5 nM,3.5 nM,1.5 nM,0.8 nM,0.8 nM,1.9 nM,0.8 nM,2.2 nM,1.4 nM,< LLOQ,< LLOQ,Nc1ncnc2c1c(-c1ccc(Oc3ccccc3)cc1)nn2[C@@H]1CCCN(C(=O)CCSC[C@H](NC(=O)CC[C@H](N)C(=O)O)C(=O)NCC(=O)O)C1 [IGSH],"half-life at 500 nM [3]: 0.5 h; Km (ɣ-GT from equine kidney): 0.588 µM; Vmax (ɣ-GT from equine kidney): 25.8 μmol∙min^−1∙U^−1; metabolism of IGSH to ICGS faster ([4]; conditioned medium (pre-incubated with ciPTEC for 48 h)): 36%; IGSH metabolized faster ([4]; medium with 10% calf serum compared to serum-free samples): 32%; uptake into ciPTEC (ciPTEC; incubating with IGSH (1 μM) directly for 4 h): no uptake; Concentration ([1]; patient A, sample ID 2, T 1.4 h, 1xdd 420mg, group abs): < LLOQ; Concentration ([1]; patient A, sample ID 5, T 0.5 h, 1xdd 420mg, group abs): < LLOQ; Concentration ([1]; patient A, sample ID 6, T 0.8 h, 1xdd 420mg, group abs): < LLOQ; Concentration ([1]; patient A, sample ID 8, T 22.7 h, 1xdd 420mg, group trough): < LLOQ; Concentration ([1]; patient A, sample ID 10, T 22.2 h, 1xdd 420mg, group trough): < LLOQ; Concentration ([1]; patient A, sample ID 11, T 22.6 h, 1xdd 420mg, group trough): < LLOQ; Concentration ([1]; patient A, sample ID 16, T 1.5 h, 1xdd 420mg, group abs): < LLOQ; Concentration ([1]; patient A, sample ID 19, T 23.3 h, 1xdd 420mg, group trough): < LLOQ; Concentration ([1]; patient A, sample ID 21, T 0.8 h, 1xdd 420mg, group abs): < LLOQ; Ctrough ([1]; patients A and B, 'trough' samples n = 4, mean ± SD (range)): <0.5 nM"

# Continued, compound first:
Compound,Tmax [1],half-life [1],"concentration at 1.4 h [1, 7]","concentration at 0.5 h [1, 8]","concentration at 0.8 h [1, 9]","concentration at 22.7 h [1, 10]","concentration at 22.2 h [1, 11]","concentration at 2.5 h ([1]; 420 mg, patient A, 1xdd 420mg)","concentration at 3.8 h [1, 13]","concentration at 0.8 h [1, 17]","concentration at 2.8 h ([1]; 560 mg, patient B, 1xdd 560mg)","concentration at 4.1 h [1, 18]","concentration at 4.4 h [1, 19]","concentration at 2.4 h ([1]; 560 mg, patient B, 1xdd 560mg)","concentration at 3.9 h ([1]; 560 mg, patient B, 1xdd 560mg)","concentration at 3.8 h [1, 20]","concentration at 4.1 h [1, 21]","concentration at 4.4 h [1, 22]","Concentration [1, 23]","Concentration [1, 24]",further results
"Nc1ncnc2c1c(-c1ccc(Oc3ccccc3)cc1)nn2[C@@H]1CCCN(C(=O)C(O)CO)C1 (some centres unmarked) [DHI, dihydrodiol-ibrutinib]",3.9 h,6.1 h,43.9 nM,51.6 nM,48.3 nM,86.6 nM,90.7 nM,404 nM,195 nM,17.5 nM,346 nM,523 nM,393 nM,450 nM,542 nM,524 nM,468 nM,484 nM,59.3 nM,< LLOQ,"concentration at 22.6 h [1, 12]: 45.3 nM; concentration at 1.5 h [1, 14]: 24 nM; concentration at 23.3 h [1, 15]: 30.5 nM; concentration at 0.8 h [1, 16]: 188 nM; half-life [2]: 59 h; AUC(0-t) [2]: 0.149 µM·h; Exposure relative to Sum of quantified compounds [2]: 23%; Exposure relative to ibrutinib [2]: 46%"
CSCCC(=O)N1CCC[C@@H](n2nc(-c3ccc(Oc4ccccc4)cc3)c3c(N)ncnc32)C1 [S-methyl-ibrutinib],–,–,–,–,–,–,–,–,–,–,–,–,–,–,–,–,–,–,–,–,detection as secondary bioactivation-metabolite of ICYS (ciPTEC; after 48 h with ibrutinib): detected
CC1(C)C[C@@H]1C(=O)N/C(=C\CCCCSC[C@H](N)C(=O)O)C(=O)O [cilastatin],–,–,–,–,–,–,–,–,–,–,–,–,–,–,–,–,–,–,–,–,IC50 (dehydropeptidase I): 100 µM
C=C(CC)C(=O)c1ccc(OCC(=O)O)c(Cl)c1Cl [ethacrynic acid],–,–,–,–,–,–,–,–,–,–,–,–,–,–,–,–,–,–,–,–,IC97 (GST [5]): 15 µM; effect on formation of IGSH in ciPTEC lysate (GST [6]): inhibited
Nc1ncnc2c1c(-c1ccc(Oc3ccccc3)cc1)nn2C1CCCN(C(=O)CCSC2OC(C(=O)O)C(O)C(O)C2O)C1 (centres unmarked) [ibrutinib-S-glucuronide],–,–,–,–,–,–,–,–,–,–,–,–,–,–,–,–,–,–,–,–,detection as secondary bioactivation-metabolite of ICYS (ciPTEC; 4 h incubation with ibrutinib): clearly found
